As a reminder, the EC50 is the concentration that produces a half-maximal response.

Consider 28 compounds from patent publication US20110190269A1, “GAMMA SECRETASE MODULATORS” (priority 2010, published 2011).

The test deals with γ-secretase. The experiment in a line: Cellular γ-secretase assay (inhibition of Aβ42 secretion). Format: cell-based. Conditions: human neuroglioma H4 cells overexpressing human APP, 22 hrs incubation. As to the method: Human neuroglioma H4 cells overexpressing human APP were plated at 30,000 cells/well/[…] in 96-well plates in IMDM media containing 10% FCS, […] Hygromycin B and incubated for 2 h at 37° C., 5% CO2 prior to adding test compounds.
Compounds for testing were dissolved in 100% Me2SO yielding in a 10 mM stock solution. Typically […] of these solutions were further diluted in 1000 μl of IMDM media (w/o FCS). Subsequent 1:1 dilutions gave a ten point dose response curve. 100 μl of each dilution was added to the cells in 96-well plates. Appropriate controls using vehicle only and reference compound were applied to this assay. The final concentration of Me2S0 was 0.4%.
After incubation for 22 hrs at 37° C., 5% CO2, 50 μl supernatant was transferred into round-bottom 96-well polypropylene plates for detection of Aβ42. 50 μl assay buffer (50 mM Tris/Cl, pH 7.4, 60 mM NaCl, 0.5% BSA, 1% TWEEN 20) was added to the wells followed by the addition of 100 μl of detection antibody (ruthenylated BAP15 0.0625 μg/ml in assay buffer). 50 μl of a premix of capture antibody (biotinylated 6E10 antibody, 1 μg/ml) and Steptavidin-coated magnetic beads (Dynal M-280, 0.125 mg/ml) were preincubated for 1 hr at room temperature before adding the assay plates. Assay plates were incubated on a shaker for 3 hrs at room temperature and finally read in the Bioveris M8 Analyser according to the manufacturer's instructions (Bioveris).
IC50 values for inhibition of Aβ42 secretion were calculated by nonlinear regression fit analysis using XLfit 4.0 software (IDBS).

Where a name gives a salt, the structure may show the parent alone.

In the case of `COc1ccccc1-c1c(C#N)cnc2nc(Nc3ccc(-n4cnc(C)c4)c(OC)c3)nn12` [Example 70, 2-(3-Methoxy-4-(4-methyl-1H-imidazol-1-yl)phenylamino)-7-(2-methoxyphenyl)-[1,2,4]triazolo[1,5-a]pyrimidine-6-carbonitrile], the 50% effective concentration (EC50) is 673 nM.
For `COc1cc(Nc2nc3c(N4CCC(F)CC4)cccn3n2)ccc1-n1cnc(C)c1` [Example 139, 8-(4-fluoropiperidin-1-yl)-N-(3-methoxy-4-(4-methyl-1H-imidazol-1-yl)phenyl)-[1,2,4]triazolo[1,5-a]pyridin-2-amine] the value was 311 nM; for `COc1cc(Nc2nc3nc(C)cc(C(C)(C)C)n3n2)ccc1-n1cnc(C)c1` [Example 15, (7-tert-Butyl-5-methyl-[1,2,4]triazolo[1,5-a]pyrimidin-2-yl)-[3-methoxy-4-(4-methyl-imidazol-1-yl)-phenyl]-amine acetate], 572 nM; for `COc1cc(Nc2nc3n(n2)C(c2ccc(F)cc2)CN(C)C3)ccc1-n1cnc(C)c1` (stereo not shown) [Example 124, 5-(4-fluorophenyl)-N-(3-methoxy-4-(4-methyl-1H-imidazol-1-yl)phenyl)-7-methyl-5,6,7,8-tetrahydro-[1,2,4]triazolo[1,5-a]pyrazin-2-amine], 357 nM.
To `COc1cc(Nc2nc3cncc(-c4ccc(F)cc4)n3n2)ccc1-n1cnc(C)c1` [Example 9, [5-(4-Fluoro-phenyl)-[1,2,4]triazolo[1,5-a]pyrazin-2-yl]-[3-methoxy-4-(4-methyl-imidazol-1-yl)-phenyl]-amine] belongs 200 nM; to `COc1cc(Nc2nc3c(-c4ccc(F)c(F)c4F)cc(C4CC4)cn3n2)ccc1-n1cnc(C)c1` [Example 120, [6-Cyclopropyl-8-(2,3,4-trifluoro-phenyl)-[1,2,4]triazolo[1,5-a]pyridin-2-yl]-[3-methoxy-4-(4-methyl-imidazol-1-yl)-phenyl]-amine], 96 nM.
For `COc1cc(Nc2nc3c(-c4cccc(CN)c4)cc(C)cn3n2)ccc1-n1cnc(C)c1` [Example 97, 8-(3-(Aminomethyl)phenyl)-N-(3-methoxy-4-(4-methyl-1H-imidazol-1-yl)phenyl)-6-methyl-[1,2,4]triazolo[1,5-a]pyridin-2-amine dihydrochloride] the value was 470 nM; for `COc1cc(Nc2nc3c(-c4ccc(F)cc4Cl)cccn3n2)ccc1-n1cnc(C)c1` [Example 131, 8-(2-chloro-4-fluorophenyl)-N-(3-methoxy-4-(4-methyl-1H-imidazol-1-yl)phenyl)-[1,2,4]triazolo[1,5-a]pyridin-2-amine], 38 nM; for `COc1cc(Nc2nc3cncc(-c4ccccc4)n3n2)ccc1-n1cnc(C)c1` [Example 13, [3-Methoxy-4-(4-methyl-imidazol-1-yl)-phenyl]-(5-phenyl-[1,2,4]triazolo[1,5-a]pyrazin-2-yl)-amine], 100 nM.
As to `COc1cc(Nc2nc3c(C4=CCOCC4)cccn3n2)ccc1-n1cnc(C)c1` [Example 149, [8-(3,6-Dihydro-2H-pyran-4-yl)-[1,2,4]triazolo[1,5-a]pyridin-2-yl]-[3-methoxy-4-(4-methyl-imidazol-1-yl)-phenyl]-amine], it took 370 nM to reach a half-maximal effect (EC50).
To `COc1cc(Nc2nc3n(n2)CCOC3c2ccccc2)ccc1-n1cnc(C)c1` (stereo not shown) [Example 142, N-(3-methoxy-4-(4-methyl-1H-imidazol-1-yl)phenyl)-8-phenyl-6,8-dihydro-5H-[1,2,4]triazolo[5,1-c][1,4]oxazin-2-amine] belongs 232 nM; to `COc1cc(Nc2nc3cccc(-c4ccccc4)n3n2)ccc1-n1cnc(C)c1` [Example 6, [3-Methoxy-4-(4-methyl-imidazol-1-yl)-phenyl]-(5-phenyl-[1,2,4]triazolo[1,5-a]pyridin-2-yl)-amine], 120 nM.
To `COc1cc(Nc2nc3c(-c4ccc(C(C)(C)O)c(F)c4)cc(C)cn3n2)ccc1-n1cnc(C)c1` [Example 90, 2-(2-Fluoro-4-(2-(3-methoxy-4-(4-methyl-1H-imidazol-1-yl)phenylamino)-6-methyl-[1,2,4]triazolo[1,5-a]pyridin-8-yl)phenyl)propan-2-ol] belongs 475 nM; to `COc1cc(Nc2nc3c(-c4ccc(F)c(Cl)c4)ccc(C(C)(C)O)n3n2)ccc1-n1cnc(C)c1` [Example 123, 2-{8-(3-Chloro-4-fluoro-phenyl)-2-[3-methoxy-4-(4-methyl-imidazol-1-yl)-phenylamino]-[1,2,4]triazolo[1,5-a]pyridin-5-yl}-propan-2-ol], 29 nM; to `COc1cc(Nc2nc3c(-c4ccc(F)c(F)c4)ccc(C(F)(F)F)n3n2)ccc1-n1cnc(C)c1` [Example 135, 8-(3,4-difluorophenyl)-N-(3-methoxy-4-(4-methyl-1H-imidazol-1-yl)phenyl)-5-(trifluoromethyl)-[1,2,4]triazolo[1,5-a]pyridin-2-amine], 141 nM.
In the case of `COc1cc(Nc2nc3c(-c4ccc(F)c(Cl)c4)cc(C)cn3n2)ccc1-n1cnc(C)c1` [Example 62, [8-(3-Chloro-4-fluoro-phenyl)-6-methyl-[1,2,4]triazolo[1,5-a]pyridin-2-yl]-[3-methoxy-4-(4-methyl-imidazol-1-yl)-phenyl]-amine], the EC50 is 10 nM.
For `COc1cc(Nc2nc3c(-c4ccc(F)cc4Cl)cccn3n2)ccc1-c1cc(C)ncn1` [Example 114, 8-(2-chloro-4-fluorophenyl)-N-(3-methoxy-4-(6-methylpyrimidin-4-yl)phenyl)-[1,2,4]triazolo[1,5-a]pyridin-2-amine] the value was 238 nM; for `COc1cc(Nc2nc3nc(C(F)(F)F)cc(C(F)(F)F)n3n2)ccc1-n1cnc(C)c1` [Example 26, (5,7-Bis-trifluoromethyl-[1,2,4]triazolo[1,5-a]pyrimidin-2-yl)-[3-methoxy-4-(4-methyl-imidazol-1-yl)-phenyl]-amine], 312 nM; for `COc1cc(Nc2nc3c(-c4ccc(F)cc4)cc(C4CC4)cn3n2)ccc1-n1cnc(C)c1` [Example 118, [6-Cyclopropyl-8-(4-fluoro-phenyl)-[1,2,4]triazolo[1,5-a]pyridin-2-yl]-[3-methoxy-4-(4-methyl-imidazol-1-yl)-phenyl]-amine], 72 nM.
For `COc1cc(Nc2nc3nccc(-c4ccc(C#N)cc4)n3n2)ccc1-n1cnc(C)c1` [Example 35, 4-{2-[3-Methoxy-4-(4-methyl-imidazol-1-yl)-phenylamino]-[1,2,4]triazolo[1,5-a]pyrimidin-7-yl}-benzonitrile] the value was 5930 nM.
For `COc1cc(Nc2nc3c(CN4CCOCC4)cnc(-c4ccccc4)n3n2)ccc1-n1cnc(C)c1` [Example 29, [3-Methoxy-4-(4-methyl-imidazol-1-yl)-phenyl]-(8-morpholin-4-ylmethyl-5-phenyl-[1,2,4]triazolo[1,5-c]pyrimidin-2-yl)-amine] the value was 1270 nM.
The compound `COc1cc(Nc2nc3c(-c4ccc5ncn(C)c5c4)cc(C)cn3n2)ccc1-n1cnc(C)c1` [Example 88, N-(3-Methoxy-4-(4-methyl-1H-imidazol-1-yl)phenyl)-6-methyl-8-(1-methyl-1H-benzo[d]imidazol-6-yl)-[1,2,4]triazolo[1,5-a]pyridin-2-amine] displayed an EC50 of 188 nM.
For `COc1cc(Nc2nc3c(Cl)cc(Cl)cn3n2)ccc1-n1cnc(C)c1` [Example 44, (6,8-Dichloro-[1,2,4]triazolo[1,5-a]pyridin-2-yl)-[3-methoxy-4-(4-methyl-imidazol-1-yl)-phenyl]-amine] the value was 1560 nM; for `COc1cc(Nc2nc3c(-c4ccc(F)c(Cl)c4)cc(C4CC4)cn3n2)ccc1-n1cnc(C)c1` [Example 147, [8-(3-Chloro-4-fluoro-phenyl)-6-cyclopropyl-[1,2,4]triazolo[1,5-a]pyridin-2-yl]-[3-methoxy-4-(4-methyl-imidazol-1-yl)-phenyl]-amine], 33 nM; for `COc1cc(Nc2nc3n(n2)CCN(C)C3c2ccc(F)cc2)ccc1-n1cnc(C)c1` (stereo not shown) [Example 129, 8-(4-fluorophenyl)-N-(3-methoxy-4-(4-methyl-1H-imidazol-1-yl)phenyl)-7-methyl-5,6,7,8-tetrahydro-[1,2,4]triazolo[1,5-a]pyrazin-2-amine], 300 nM.
To `COc1cc(Nc2nc3c(-c4cccc(CNS(C)(=O)=O)c4)cc(C)cn3n2)ccc1-n1cnc(C)c1` [Example 98, N-(3-(2-(3-Methoxy-4-(4-methyl-1H-imidazol-1-yl)phenylamino)-6-methyl-[1,2,4]triazolo[1,5-a]pyridin-8-yl)benzyl)methanesulfonamide] belongs 390 nM; to `COc1cc(Nc2nc3c(OCc4ccccc4)cccn3n2)ccc1-n1cnc(C)c1` [Example 43, (8-Benzyloxy-[1,2,4]triazolo[1,5-a]pyridin-2-yl)-[3-methoxy-4-(4-methyl-imidazol-1-yl)-phenyl]-amine], 680 nM; to `COc1cc(Nc2nc3c(-c4ccc(F)c(C#N)c4)cc(C)cn3n2)ccc1-n1cnc(C)c1` [Example 78, 2-Fluoro-5-(2-(3-methoxy-4-(4-methyl-1H-imidazol-1-yl)phenylamino)-6-methyl-[1,2,4]triazolo[1,5-a]pyridin-8-yl)benzonitrile], 27 nM.
